Results as given in US20090069276A1, “Treatment, prevention and amelioration of pulmonary disorders associated with chemotherapy or radiotherapy with active vitamin D compounds or mimics thereof” (Novacea, Inc., priority 2005, published 2009).
Like-named read-outs stand apart in the source and are kept apart here.

Experiments:
[1] = test system: cancer patients; conditions: cited from earlier work
[2] = test system: patients; conditions: administered doses; Glover 1988; cited from earlier work
[3] = in vivo; cited from earlier work
[4] = test system: cancer patients; conditions: cited from earlier work; for Patients who developed pneumonia: refractory chronic lymphocytic leukemia
[5] = Solubility study of calcitriol in the formulations (light microscopy); type: physicochemical; conditions: each formulation of Table 3; prepared at 50° C., cooled to room temperature; highest concentration tested
Experimental: To further assess the formulations of calcitriol, a solubility study was conducted to evaluate the amount of calcitriol soluble in each formulation. Calcitriol concentrations from 0.1 to 0.6 μg calcitriol/mg fomulation were prepared by heating the formulations to 50° C. followed by addition of the appropriate mass of calcitriol. The formulations were then allowed to cool to room temperature and the presence of undissolved calcitriol was determined by a light microscope with and without polarizing light. For each formulation, calcitriol was soluble at the highest concentration tested, 0.6 μg calcitriol/mg formulation.

[6] = test system: patients with androgen independent prostate cancer; conditions: Taxotere 36 mg/m^2 weekly, calcitriol 45 μg weekly by HDPA
Text: Two hundred fifty patients with androgen independent prostate cancer were enrolled in a randomized placebo controlled trial at 48 centers in the United States and Canada. All patients in the study received chemotherapy treatment with weekly Taxotere®, a drug in the taxoid class of chemotherapeutic agents. […] Oral dexamethasone was also given along with the Taxotere® to minimize certain side effects (allergic reactions and fluid retention) associated with Taxotere®.
In addition to Taxotere® and dexamethasone, half of the patients were randomly treated with calcitriol and the other half received a placebo. Calcitriol was administered as three capsules of 15 μg each once a week on the day prior to chemotherapy. […] The same Taxotere® dose of 36 mg/m^2 body surface area was administered to the patients receiving Taxotere® and placebo or Taxotere® in combination with calcitriol. Drugs were administered for three weeks out of a four week cycle, with calcitriol being administered on days 1, 7, and 21 and Taxotere® being administered on days 2, 8, and 22.

[7] = acute promyelocytic leukemia, Tallman 1997

Question: Which “Patients who developed grade III or IV pulmonary toxicity (total)” value [1, 7] does the source give for `CC1=C(/C=C/C(C)=C/C=C/C(C)=C/C(=O)O)C(C)(C)CCC1` [all-trans-retinoic acid] here?
Answer: The value was “Twenty”.

Question: What about the “Patients with lethal pulmonary toxicity” value [1, 7] of the same compound?
Answer: Its value is 2%.

Question: What about the “Patients with life-threatening pulmonary toxicity” value [1, 7] of the same compound?
Answer: Its value is 11%.

Question: What about the “Patients with severe pulmonary toxicity” value [1, 7] of the same compound?
Answer: Its value is 7%.

Question: What does the source list for `NCCCNCCSP(=O)(O)O` [WR 2721, S-2-(3-aminopropylamino)ethylphosphorothioic acid]?
Answer: Patients with emesis [2]: 48%; Patients with hypotension [2]: 7%

Question: For `C=C1/C(=C\C=C2/CCC[C@]3(C)C([C@H](C)CC#CC(C)(C)O)=CC[C@@H]23)C[C@@H](O)C[C@@H]1O` [Ro23-7553], which “Hypercalcemic effect, in words” value [3] is on record?
Answer: Its value is “reduced hypercalcemic effect”.

Question: For “gemtuzumab: cancer drug given to acute myelogenous patients; product Mylotarg™, Wyeth-Ayerst”, which “Patients with grade III or IV pneumonia” value ([4]; acute myelogenous patients, 9 mg/m^2 IV over 2 hours, two doses 14 days apart, Mylotarg package insert) is on record?
Answer: The value was 7%.

Question: For `Nc1ccn([C@@H]2O[C@H](CO)[C@@H](O)C2(F)F)c(=O)n1` [gemcitabine], which “Patients with grade III-IV respiratory toxicity” value ([1]; out of 40 bladder cancer patients, 1200 mg/m^2 IV weekly times three on a 4-week cycle, Stadler 1997) is on record?
Answer: The value was 2 patients.

Question: With `Nc1nc(F)nc2c1ncn2[C@@H]1O[C@H](COP(=O)(O)O)[C@@H](O)[C@@H]1O` [fludarabine phosphate] as the compound, how does the “Patients who developed pneumonia” value ([4]; 15-25 mg/m^2 daily for five days every 28 days) read?
Answer: The value was 22%.

Question: What about the “Patients who developed pneumonia” value ([4]; 22-40 mg/m^2 daily for five days every 28 days) of the same compound?
Answer: Its value is 16%.

Question: With `C=C1/C(=C\C=C2/CCC[C@]3(C)[C@@H]([C@H](C)CCCC(C)(C)O)CC[C@@H]23)C[C@@H](O)C[C@@H]1O` [calcitriol, 1α,25-hydroxyvitamin D3] as the compound, how does the “Calcitriol soluble in formulation” value [5] read?
Answer: The value was ≥ 0.6 μg calcitriol/mg formulation.

Question: Which results are given for `CC(=O)O[C@@]12CO[C@@H]1C[C@H](O)[C@@]1(C)C(=O)[C@H](O)C3=C(C)[C@@H](OC(=O)[C@H](O)[C@@H](NC(=O)OC(C)(C)C)c4ccccc4)C[C@@](O)([C@@H](OC(=O)c4ccccc4)[C@H]21)C3(C)C` [Taxotere®]?
Answer: Patients hospitalized for dyspnea [6]: four; Patients who developed ARDS [6]: One
